Data taken from ChEMBL document CHEMBL2016462, “Inhibitors of Ketohexokinase: Discovery of Pyrimidinopyrimidines with Specific Substitution that Complements the ATP-Binding Site” (ACS Med Chem Lett, 2011).

Experiments:
[1] = biological target: T1, Ketohexokinase (Homo sapiens, UniProt P50053); experiment: Inhibition of human ketohexokinase isoform C expressed in Escherichia coli BL21 (DE3) cells using D-fructose as substrate after 12 to 15 mins by fluorescence polarization assay
T1 sequence (P50053 whole entry): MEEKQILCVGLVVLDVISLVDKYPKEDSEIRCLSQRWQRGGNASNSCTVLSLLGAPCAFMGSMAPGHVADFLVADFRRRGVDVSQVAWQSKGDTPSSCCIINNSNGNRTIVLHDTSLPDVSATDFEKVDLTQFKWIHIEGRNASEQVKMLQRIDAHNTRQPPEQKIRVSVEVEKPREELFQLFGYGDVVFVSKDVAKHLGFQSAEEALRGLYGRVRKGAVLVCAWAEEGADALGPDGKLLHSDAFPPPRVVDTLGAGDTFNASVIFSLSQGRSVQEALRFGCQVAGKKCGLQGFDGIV

[2] = biological target: T1, Ketohexokinase; experiment: Inhibition of ketokinase isoform C in human HepG2 cells assessed as levels of fructose-1-phosphate preincubated for 30 mins followed by substrate addition measured after 3 hrs by LC-MS analysis; format: cell-based

| IC50 [1] [nM] | IC50 [2] [nM] | SMILES |
| --- | --- | --- |
| 300 | – | C#CCNc1ncnc2c(Nc3ccccc3C)nc(N3CCNCC3)nc12 |
| 400 | – | Cc1ccccc1Nc1nc(N2CCNCC2)nc2c(NCc3ccccc3)ncnc12 |
| 300 | – | Cc1ccccc1Nc1nc(N2CCNCC2)nc2c(NCc3cccs3)ncnc12 |
| 60 | – | Cc1ccccc1Nc1nc(N2CCNCC2)nc2c(NCc3nccs3)ncnc12 |
| 300 | – | Cc1ccccc1Nc1nc(N2CCCNCC2)nc2c(NCC3CC3)ncnc12 |
| 1500 | – | Cc1ccccc1Nc1nc(N2CCN(C)CC2)nc2c(NCC3CC3)ncnc12 |
| > 7000 | – | Cc1ccccc1Nc1nc(N2CCOCC2)nc2c(NCC3CC3)ncnc12 |
| 70 | – | Cc1ccccc1Nc1nc(N2CCC(CN)CC2)nc2c(NCC3CC3)ncnc12 |
| 200 | – | Cc1ccccc1Nc1nc(N2CCC(N)CC2)nc2c(NCC3CC3)ncnc12 |
| 710 | – | Cc1ccccc1Nc1nc(NC2CCNCC2)nc2c(NCC3CC3)ncnc12 |
| 18 | – | CSc1ccccc1Nc1nc(N2CCNCC2)nc2c(NCC3CCC3)ncnc12 |
| 50 | – | CSc1ccccc1Nc1nc(N2CCNCC2)nc2c(NCCC3CC3)ncnc12 |
| 7 | 140 | COCCNc1ncnc2c(Nc3ccccc3SC)nc(N3CCNCC3)nc12 |
| 30 | – | CSc1ccccc1Nc1nc(N2CCNCC2)nc2c(NCc3cccs3)ncnc12 |
| 16 | 270 | CSc1ccccc1Nc1nc(N2CCNCC2)nc2c(NCc3nccs3)ncnc12 |
| 9.8 | 270 | CSc1ccccc1Nc1nc(N2CCNCC2)nc2c(NCc3ccccn3)ncnc12 |
| 7.1 | 78 | CSc1ccccc1Nc1nc(N2CCNCC2)nc2c(N)ncnc12 |
| 18 | – | CSc1ccccc1Nc1nc(N2CCC[C@@H](N)C2)nc2c(NCC3CC3)ncnc12 |
| 23 | – | CSc1ccccc1Nc1nc(N2CCC[C@H](N)C2)nc2c(NCC3CC3)ncnc12 |
| 10 | – | CSc1ccccc1Nc1nc(N2CCC(CN)CC2)nc2c(NCC3CC3)ncnc12 |
| 30 | 590 | CSc1ccccc1Nc1nc(N2CC(CN)C2)nc2c(NCC3CC3)ncnc12 |
| – | 360 | CSc1ccccc1Nc1nc(N2CC3(CNC3)C2)nc2c(NCC3CC3)ncnc12 |
| 130 | – | CNCCN(C)c1nc(Nc2ccccc2SC)c2ncnc(NCC3CC3)c2n1 |
| 140 | – | CSc1ccccc1Nc1nc(N2CCC(CN(C)C)CC2)nc2c(NCC3CC3)ncnc12 |
| 110 | – | CSc1ccccc1Nc1nc(N2CCN(C)CC2)nc2c(NCC3CC3)ncnc12 |
